Results reported in US20100168079A1 (priority 2008, published 2010).
Where two headings read alike, the source gives them in different places.

Key:
circulating lymphocytes = experiment: Measurement of Circulating Lymphocytes; assay type: in vivo, Rats (Lewis strain, male); details: Rattus norvegicus, Lymphocyte, read-out: Residual Lymphocyte Counts 14 hours after 30 mg/kg p.o. dosing
Method: The compounds of formula (I) typically induce the depletion of blood lymphocyte as may be determined in the assay described below. Moreover, compounds of formula (I) are typically efficacious in the said assay also when administered via the per oral route of administration.
Measurement of Circulating Lymphocytes:
The test compounds (or salts thereof) are dissolved in a vehicle such as water, saline, PEG (polyethylene glycol) 200, or PBS (phosphate buffered saline). Rats (Lewis strain, male, 6-12 weeks old) are administered up to 100 mg/kg of the test compounds in 2 ml/kg vehicle via per oral or subcutaneous application. The vehicle or a reference salt and FTY720 (0.3 mg/kg) are included as negative and positive controls, respectively.
Blood is collected from the sublingual vein before and 2, 8 and 24 hours or 14, 18 and 24 hours after the test compound administration under short isoflurane anesthesia. Whole blood samples are subjected to hematology analysis. Peripheral lymphocyte counts are determined using an automated analyzer. The Haemathology System uses a combination of light scatter, cytochemical staining and nuclear density on two independent channels to measure the total and differential white cell counts. Two to four rats are used to assess the lymphocyte depletion activity of each compound screened. The data are presented as mean±SEM.

human S1P1 receptors = target: T1, human S1P1 receptors (Homo sapiens, UniProt P21453); experiment: Human S1P1 Receptor Calcium FLIPR Antagonist Assay (HeLa Gα16 S1P1); assay type: cell-based; details: relative antagonism of Ca2+ signal evoked by probing agonist GNF-AC-1 at EC80; HeLa-S1P1/Gα16 cells
T1 construct: myc (N); expressed in transfected cells; host or cells: HeLa (human cervix carcinoma, ATCC CCL2), HeLa-S1P1/Gα16 cell clone 1
T1 sequence (P21453 whole entry): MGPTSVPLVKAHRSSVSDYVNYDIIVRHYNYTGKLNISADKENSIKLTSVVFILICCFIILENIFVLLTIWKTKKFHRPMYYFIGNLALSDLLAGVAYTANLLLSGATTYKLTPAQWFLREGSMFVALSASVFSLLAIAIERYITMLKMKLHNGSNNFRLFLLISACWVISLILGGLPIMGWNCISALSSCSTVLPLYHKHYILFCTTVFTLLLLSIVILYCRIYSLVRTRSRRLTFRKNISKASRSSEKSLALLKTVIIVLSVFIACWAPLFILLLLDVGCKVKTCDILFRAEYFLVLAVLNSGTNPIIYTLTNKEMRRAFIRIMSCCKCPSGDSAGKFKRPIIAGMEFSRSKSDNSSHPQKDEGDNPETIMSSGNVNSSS
Method: Human S1P1 Receptor Calcium FLIPR Antagonist Assay
The cells are plated in 384 well black plates (10′000 cells per well). […] After washing, the cells are transferred to the FLIPR. The test compounds are added at different concentrations […]) in HBSS in the presence of 0.1% BSA and changes in fluorescence are recorded (indication of agonism). The probing agonist is added 20-30 minutes afterwards to the wells at a concentration giving 80% of the maximal activity (EC80). After each addition, time points are collected as follows: 20 time points (2 seconds) before the addition of the agonist (Fmin) and 60 time points (1 or 2 seconds) after the addition of the probing agonist. This allows the determination of the maximal fluorescence (Fmax). The ratio (Fmax-Fmin)/Fmin is plotted against the log of the concentration of the test compounds and the IC50 (relative antagonism) is calculated using the XLfit-4 software. […] A concentration-response curve of the probing agonist is determined on each plate in parallel.

[1] = male Lewis rats, 14 hours after oral 30 mg/kg, compared to vehicle-only group, mean±SEM

Row | IC50 (human S1P1 receptors) | SMILES | response vs control in vivo at 30 mg/kg (circulating lymphocytes; po, 14 h) | response vs control in vivo at 30 mg/kg (circulating lymphocytes; [1])
1 | 2 nM | CC[C@@H](Nc1cccc(-c2cc(C)c(C(=O)N[C@@H](C)C(=O)O)c(C)c2)c1)c1ccc(Cl)c(C)c1 [Example 6, (S)-2-({3′-[(R)-1-(4-Chloro-3-methyl-phenyl)-propylamino]-3,5-dimethyl-biphenyl-4-carbonyl}-amino)-propionic acid] |  | 15.9%
2 | 2 nM | Cc1cc(C(C)Nc2cccc(-c3cc(C)c(C(=O)NC4(C(=O)O)CC4)c(C)c3)c2)ccc1Cl (stereo not shown) [Example 7, 1-({3′-[1-(4-Chloro-3-methyl-phenyl)-ethylamino]-3,5-dimethyl-biphenyl-4-carbonyl}-amino)-cyclopropanecarboxylic acid] |  | 14.8%
3 | 2 nM | Cc1cc([C@@H](C)Nc2cccc(-c3cc(C)c(C(=O)NC4(C(=O)O)CC4)c(C)c3)c2)ccc1Cl [Example 8, 1-({3′-[(R)-1-(4-Chloro-3-methyl-phenyl)-ethylamino]-3,5-dimethyl-biphenyl-4-carbonyl}-amino)-cyclopropanecarboxylic acid] |  | 16.7%
4 | 8 nM | CCC(Nc1cccc(-c2cc(C)c(C(=O)N[C@@H](C)C(=O)O)c(C)c2)c1)c1ccc(Cl)c(Cl)c1 (stereo partly drawn) [Example 20, (S)-2-({3′-[1-(3,4-Dichloro-phenyl)-propylamino]-3,5-dimethyl-biphenyl-4-carbonyl}-amino)-propionic acid] |  | 18.7%
5 | 1 nM | CCC(Nc1ccc(F)c(-c2cc(C)c(C(=O)N[C@@H](C)C(=O)O)c(C)c2)c1)c1ccc(Cl)c(C)c1 (stereo partly drawn) [Example 24, (S)-2-({5′-[1-(4-Chloro-3-methyl-phenyl)-propylamino]-2′-fluoro-3,5-dimethyl-biphenyl-4-carbonyl}-amino)-propionic acid] |  | 16.8%
6 | 1 nM | CC[C@@H](Nc1cccc(-c2cc(C)c(C(=O)N[C@@H](C)C(=O)O)c(C)c2)c1)c1cc(C)c(Cl)c(C)c1 [Example 101, (S)-2-({3′-[(R)-1-(4-Chloro-3,5-dimethyl-phenyl)-propylamino]-3,5-dimethyl-biphenyl-4-carbonyl}-amino)-propionic acid] |  | 
7 | 1 nM | CC[C@@H](Nc1cccc(-c2cc(C)c(C(=O)NC3(C(=O)O)CC3)c(C)c2)c1)c1cc(C)c(Cl)c(C)c1 [Example 102, 1-({3-[(R)-1-(4-Chloro-3,5-dimethyl-phenyl)-propylamino]-3,5-dimethyl-biphenyl-4-carbonyl}-amino)-cyclopropanecarboxylic acid] |  | 
8 | 1 nM | CC[C@H](c1ccc(Cl)c(C)c1)N(C)c1cccc(-c2cc(C)c(C(=O)N[C@@H](C)C(=O)O)c(C)c2)c1 [Example 104, (S)-2-[(3′-{[(R)-1-(4-Chloro-3-methyl-phenyl)-propyl]-methyl-amino}-3,5-dimethyl-biphenyl-4-carbonyl)-amino]-propionic acid] |  | 
9 | 1 nM | CC[C@@H](Nc1cccc(-c2cc(C)c(C(=O)N(C)[C@@H](C)C(=O)O)c(C)c2)c1)c1ccc(Cl)c(C)c1 [Example 107, (S)-2-({3′-[(R)-1-(4-Chloro-3-methyl-phenyl)-propylamino]-3,5-dimethyl-biphenyl-4-carbonyl}-methyl-amino)-propionic acid] |  | 
10 | 35 nM | CC[C@H](c1ccc(Cl)c(C)c1)N(C)c1cccc(-c2cc(C)c(C(=O)N(C)C3(C(=O)O)CC3)c(C)c2)c1 [Example 110, 1-[(3′-{[(R)-1-(4-Chloro-3-methyl-phenyl)-propyl]-methyl-amino}-3,5-dimethyl-biphenyl-4-carbonyl)-methyl-amino]-cyclopropanecarboxylic acid] |  | 
11 | 8 nM | CC[C@@H](Nc1cccc(-c2cc(C)c(C(=O)N(C)C3(C(=O)O)CC3)c(C)c2)c1)c1ccc(Cl)c(C)c1 [Example 111, 1-({3′-[(R)-1-(4-Chloro-3-methyl-phenyl)-propylamino]-3,5-dimethyl-biphenyl-4-carbonyl}-methyl-amino)-cyclopropanecarboxylic acid] |  | 
12 | 1 nM | Cc1cc([C@@H](C)Nc2cccc(-c3cc(C)c(C(=O)N[C@@H](CN)C(=O)O)c(C)c3)c2)ccc1Cl [Example 114, (S)-3-Amino-2-({3′-[(R)-1-(4-chloro-3-methyl-phenyl)-ethylamino]-3,5-dimethyl-biphenyl-4-carbonyl}-amino)-propionic acid] |  | 
13 | 2 nM | CC[C@H](c1ccc(Cl)c(C)c1)N(C)c1ccc(F)c(-c2cc(C)c(C(=O)N[C@@H](C)C(=O)O)c(C)c2)c1 [Example 116, (S)-2-[(5′-{[(R)-1-(4-Chloro-3-methyl-phenyl)-propyl]-methyl-amino}-2′-fluoro-3,5-dimethyl-biphenyl-4-carbonyl)-amino]-propionic acid] |  | 
14 | 4 nM | CC[C@H](c1ccc(Cl)c(C)c1)N(C)c1ccc(F)c(-c2cc(C)c(C(=O)N(C)[C@@H](C)C(=O)O)c(C)c2)c1 [Example 118, (S)-2-[(5′-{[(R)-1-(4-Chloro-3-methyl-phenyl)-propyl]-methyl-amino}-2′-fluoro-3,5-dimethyl-biphenyl-4-carbonyl)-methyl-amino]-propionic acid] |  | 

More lines, now with the values behind:

Row | SMILES | IC50 (human S1P1 receptors) | response vs control in vivo at 30 mg/kg (circulating lymphocytes; po, 14 h) | response vs control in vivo at 30 mg/kg (circulating lymphocytes; [1])
15 | Cc1cc([C@@H](C)Nc2cccc(-c3cc(C)c(C(=O)N[C@@H](C)C(=O)O)c(C)c3)c2)ccc1Cl [Example 3, (S)-2-({3′-[(R)-1-(4-Chloro-3-methyl-phenyl)-ethylamino]-3,5-dimethyl-biphenyl-4-carbonyl}-amino)-propionic acid] |  | 15.5% | 
16 | Cc1cc(C(C)Nc2ccc(F)c(-c3cc(C)c(C(=O)N[C@@H](C)C(=O)O)c(C)c3)c2)ccc1Cl (stereo partly drawn) [Example 22, (S)-2-({5′-[1-(4-Chloro-3-methyl-phenyl)-ethylamino]-2′-fluoro-3,5-dimethyl-biphenyl-4-carbonyl}-amino)-propionic acid] | 2 nM |  | 18.7%
17 | Cc1cc([C@@H](C)Nc2ccc(F)c(-c3cc(C)c(C(=O)N[C@@H](C)C(=O)O)c(C)c3)c2)ccc1Cl [Example 23, (S)-2-({5′-[(R)-1-(4-Chloro-3-methyl-phenyl)-ethylamino]-2′-fluoro-3,5-dimethyl-biphenyl-4-carbonyl}-amino)-propionic acid] | 1 nM |  | 17.4%
18 | Cc1cc(C(Nc2cccc(-c3ccc(C(=O)N[C@@H](C)C(=O)O)c(C(F)(F)F)c3)c2)C(F)(F)F)ccc1Cl (stereo partly drawn) [Example 92, (S)-2-({3′-[1-(4-Chloro-3-methyl-phenyl)-2,2,2-trifluoro-ethylamino]-3-trifluoromethyl-biphenyl-4-carbonyl}-amino)-propionic acid] | 4 nM |  | 
19 | Cc1cc(C(Nc2cccc(-c3ccc(C(=O)N(C)C4(C(=O)O)CC4)c(C(F)(F)F)c3)c2)C(F)(F)F)ccc1Cl (stereo not shown) [Example 93, 1-({3′-[1-(4-Chloro-3-methyl-phenyl)-2,2,2-trifluoro-ethylamino]-3-trifluoromethyl-biphenyl-4-carbonyl}-methyl-amino)-cyclopropanecarboxylic acid] | 4 nM |  | 
20 | Cc1cc(C(Nc2cccc(-c3ccc(C(=O)N[C@@H](C)C(=O)O)c(Cl)c3)c2)C(F)(F)F)ccc1Cl (stereo partly shown) [Example 94] | 14 nM |  | 
21 | Cc1cc(C(Nc2cccc(-c3ccc(C(=O)NC4(C(=O)O)CC4)c(Cl)c3)c2)C(F)(F)F)ccc1Cl (stereo not shown) [Example 95, 1-({3-Chloro-3′-[1-(4-chloro-3-methyl-phenyl)-2,2,2-trifluoro-ethylamino]-biphenyl-4-carbonyl}-amino)-cyclopropanecarboxylic acid] | 14 nM |  | 
22 | Cc1cc([C@H](Nc2cccc(-c3ccc(C(=O)N(C)[C@@H](C)C(=O)O)c(Cl)c3)c2)C(F)(F)F)ccc1Cl [Example 96, (S)-2-({3-Chloro-3′-[(S)-1-(4-chloro-3-methyl-phenyl)-2,2,2-trifluoro-ethylamino]-biphenyl-4-carbonyl}-methyl-amino)-propionic acid] | 2 nM |  | 
23 | Cc1cc(C(C)(C)Nc2cccc(-c3ccc(C(=O)N[C@@H](C)C(=O)O)c(Cl)c3)c2)ccc1Cl [Example 97, (S)-2-({3-Chloro-3′-[1-(4-chloro-3-methyl-phenyl)-1-methyl-ethylamino]-biphenyl-4-carbonyl}-amino)-propionic acid] | 1 nM |  | 
24 | Cc1cc(C(C)(C)Nc2cccc(-c3ccc(C(=O)N(C)[C@@H](C)C(=O)O)c(Cl)c3)c2)ccc1Cl [Example 98, (S)-2-({3-Chloro-3′-[1-(4-chloro-3-methyl-phenyl)-1-methyl-ethylamino]-biphenyl-4-carbonyl}-methyl-amino)-propionic acid] | 4 nM |  | 
